Read-outs that look alike come from different tables or passages of the source.
Columns and labels:
PARP-1 protein = molecular target: T1, PARP-1 protein (Homo sapiens, UniProt P09874); format: cell-based
T1 construct: APTX, PARP-1, and XPA protein were immunoprecipitated from cell extracts using corresponding antibodies; endogenous in cells; host or cells: HaCaT human keratinocytes

[1] = molecular target: T2, APTX (C2H2) zinc finger peptide (Homo sapiens, UniProt Q7Z2E3); format: binding
T2 construct: purchased Genemed Synthesis Inc. (San Antonio, Tex.); host or cells: chemical synthesis
T2 sequence (Q7Z2E3 330-356 limits assumed): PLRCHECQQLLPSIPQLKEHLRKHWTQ

[2] = molecular target: T3, PARP-1 (C3H1) zinc finger peptide (Homo sapiens, UniProt P09874, DEL32-46); format: binding
T3 construct: purchased Genemed Synthesis Inc. (San Antonio, Tex.); host or cells: chemical synthesis
T3 sequence (P09874 with tags, fused parts or gaps DEL32-46 limits assumed): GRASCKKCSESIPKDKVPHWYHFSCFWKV

XPA protein = molecular target: T4, XPA protein (Homo sapiens, UniProt P23025); format: cell-based
T4 construct: APTX, PARP-1, and XPA protein were immunoprecipitated from cell extracts using corresponding antibodies; endogenous in cells; host or cells: HaCaT human keratinocytes
T4 sequence (P23025 whole entry): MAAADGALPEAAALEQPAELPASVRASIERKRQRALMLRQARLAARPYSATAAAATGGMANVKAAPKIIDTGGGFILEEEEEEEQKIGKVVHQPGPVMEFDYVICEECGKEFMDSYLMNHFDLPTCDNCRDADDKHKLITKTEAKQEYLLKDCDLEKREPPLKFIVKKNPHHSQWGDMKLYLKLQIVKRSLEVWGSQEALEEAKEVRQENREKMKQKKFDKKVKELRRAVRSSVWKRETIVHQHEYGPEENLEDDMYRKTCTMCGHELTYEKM

[3] = molecular target: T5, XPA (C4) zinc finger peptide (Homo sapiens, UniProt P23025); format: binding
T5 construct: purchased Genemed Synthesis Inc. (San Antonio, Tex.); host or cells: chemical synthesis
T5 sequence (P23025 101-137 limits assumed): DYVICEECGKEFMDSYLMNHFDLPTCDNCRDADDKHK

APTX protein = molecular target: T6, APTX protein (Homo sapiens, UniProt Q7Z2E3); format: cell-based
T6 construct: APTX, PARP-1, and XPA protein were immunoprecipitated from cell extracts using corresponding antibodies; endogenous in cells; host or cells: HaCaT human keratinocytes
T6 sequence (Q7Z2E3 whole entry): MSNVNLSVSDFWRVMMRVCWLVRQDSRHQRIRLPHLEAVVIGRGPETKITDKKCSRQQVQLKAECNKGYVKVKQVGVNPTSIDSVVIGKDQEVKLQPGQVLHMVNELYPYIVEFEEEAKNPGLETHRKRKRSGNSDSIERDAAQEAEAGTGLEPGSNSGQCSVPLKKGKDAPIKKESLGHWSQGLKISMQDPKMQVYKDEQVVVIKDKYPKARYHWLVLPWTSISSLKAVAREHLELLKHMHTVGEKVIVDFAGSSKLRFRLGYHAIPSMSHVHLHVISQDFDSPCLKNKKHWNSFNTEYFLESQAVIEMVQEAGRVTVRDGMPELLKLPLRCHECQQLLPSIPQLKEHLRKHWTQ

[4] = molecular target: T2, APTX (C2H2) zinc finger peptide; format: binding; remark: listed apart in the source
[5] = molecular target: T3, PARP-1 (C3H1) zinc finger peptide; format: binding; remark: listed apart in the source
[6] = molecular target: T5, XPA (C4) zinc finger peptide; format: binding; remark: listed apart in the source
PARP [7] = molecular target: T7, PARP (Homo sapiens, UniProt P09874); set-up: host or cells: urothelial cells; details: 1 µM; cited from earlier work
Target sequence in this assay (P09874 2-1014 limits assumed): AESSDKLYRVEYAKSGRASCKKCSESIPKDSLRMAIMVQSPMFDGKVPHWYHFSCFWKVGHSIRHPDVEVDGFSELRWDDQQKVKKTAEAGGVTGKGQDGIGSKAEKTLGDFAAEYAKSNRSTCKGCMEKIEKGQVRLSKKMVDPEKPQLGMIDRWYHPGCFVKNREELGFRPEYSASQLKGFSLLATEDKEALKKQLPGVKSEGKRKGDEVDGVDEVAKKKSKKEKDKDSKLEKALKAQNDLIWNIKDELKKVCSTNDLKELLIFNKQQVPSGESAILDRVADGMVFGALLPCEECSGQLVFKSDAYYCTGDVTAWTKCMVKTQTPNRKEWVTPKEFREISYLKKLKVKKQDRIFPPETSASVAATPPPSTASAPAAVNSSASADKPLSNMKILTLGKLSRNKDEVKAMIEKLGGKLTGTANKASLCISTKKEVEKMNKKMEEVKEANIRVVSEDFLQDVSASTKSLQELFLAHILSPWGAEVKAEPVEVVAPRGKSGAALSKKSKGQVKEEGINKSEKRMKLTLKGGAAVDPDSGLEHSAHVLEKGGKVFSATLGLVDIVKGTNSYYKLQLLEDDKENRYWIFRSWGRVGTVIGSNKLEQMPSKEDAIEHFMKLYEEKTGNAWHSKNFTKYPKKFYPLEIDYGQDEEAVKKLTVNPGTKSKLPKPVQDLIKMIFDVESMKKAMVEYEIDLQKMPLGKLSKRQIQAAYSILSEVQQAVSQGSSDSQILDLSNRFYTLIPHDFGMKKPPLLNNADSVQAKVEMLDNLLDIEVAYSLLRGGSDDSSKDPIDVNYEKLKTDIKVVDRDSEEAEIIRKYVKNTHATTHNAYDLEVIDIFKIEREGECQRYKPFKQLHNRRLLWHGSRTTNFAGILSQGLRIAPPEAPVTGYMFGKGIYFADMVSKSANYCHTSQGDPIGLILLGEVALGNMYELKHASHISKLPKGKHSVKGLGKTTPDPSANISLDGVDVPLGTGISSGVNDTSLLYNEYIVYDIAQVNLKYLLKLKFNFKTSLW

[8] = molecular target: T3, PARP-1 (C3H1) zinc finger peptide; format: binding; remark: listed apart in the source
[9] = molecular target: T2, APTX (C2H2) zinc finger peptide; format: binding; remark: listed apart in the source
[10] = molecular target: T2, APTX (C2H2) zinc finger peptide; format: binding; remark: listed apart in the source
[11] = molecular target: T5, XPA (C4) zinc finger peptide; format: binding; remark: listed apart in the source
[12] = molecular target: T5, XPA (C4) zinc finger peptide; format: binding; remark: listed apart in the source
[13] = molecular target: T3, PARP-1 (C3H1) zinc finger peptide; format: binding; remark: listed apart in the source
C2H2 complex = details: cited from earlier work
C3H1 and C4 complexes = details: cited from earlier work
PARP [14] = molecular target: T7, PARP; set-up: host or cells: human keratinocytes; details: cited from earlier work
Target sequence in this assay (P09874 2-1014): as the sequence (P09874 2-1014 limits assumed) above

T1 sequence (P09874 whole entry): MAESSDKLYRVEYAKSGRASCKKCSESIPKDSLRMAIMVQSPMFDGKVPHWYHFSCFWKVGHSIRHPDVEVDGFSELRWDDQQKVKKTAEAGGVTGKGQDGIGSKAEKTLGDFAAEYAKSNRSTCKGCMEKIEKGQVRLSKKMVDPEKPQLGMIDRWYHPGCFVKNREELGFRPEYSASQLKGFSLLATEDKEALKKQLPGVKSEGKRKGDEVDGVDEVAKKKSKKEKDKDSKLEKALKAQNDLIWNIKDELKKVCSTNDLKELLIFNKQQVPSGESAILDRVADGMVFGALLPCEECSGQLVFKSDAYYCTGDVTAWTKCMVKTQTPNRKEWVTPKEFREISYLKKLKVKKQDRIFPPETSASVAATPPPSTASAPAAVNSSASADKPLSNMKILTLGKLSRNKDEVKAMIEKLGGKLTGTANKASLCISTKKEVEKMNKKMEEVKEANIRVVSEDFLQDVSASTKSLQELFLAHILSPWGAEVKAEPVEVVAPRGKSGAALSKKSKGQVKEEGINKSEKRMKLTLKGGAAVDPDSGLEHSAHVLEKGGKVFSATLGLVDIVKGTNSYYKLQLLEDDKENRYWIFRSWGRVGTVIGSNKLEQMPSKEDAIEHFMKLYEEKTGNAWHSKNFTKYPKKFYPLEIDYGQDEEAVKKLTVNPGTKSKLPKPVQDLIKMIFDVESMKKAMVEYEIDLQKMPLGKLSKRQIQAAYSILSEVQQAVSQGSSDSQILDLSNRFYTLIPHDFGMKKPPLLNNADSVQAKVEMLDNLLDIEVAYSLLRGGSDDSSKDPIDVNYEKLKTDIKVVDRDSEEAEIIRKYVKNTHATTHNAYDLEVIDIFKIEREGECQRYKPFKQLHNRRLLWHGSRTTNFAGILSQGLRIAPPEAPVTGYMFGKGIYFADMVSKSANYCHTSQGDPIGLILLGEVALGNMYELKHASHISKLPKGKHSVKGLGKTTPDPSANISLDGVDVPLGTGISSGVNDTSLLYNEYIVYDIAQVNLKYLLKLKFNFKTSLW

Compound | zinc content in protein (PARP-1 protein) | cobalt binding (absorbance at 660 nm) after incubation with arsenical [1] | tertiary structure change (fluorescent intensity at 350 nm) [2] | zinc content in protein (XPA protein) | binding to zinc finger peptide by MALDI-TOF mass spectrometry [3] | zinc content in protein (APTX protein) | As—S bond formation (A270) [4] | binding to zinc finger peptide by MALDI-TOF mass spectrometry [5] | As—S bond formation (A270) [6] | PARP activity inhibition (PARP [7]) | As—S bond formation (A270) [8] | binding to zinc finger peptide by MALDI-TOF mass spectrometry [9] | tertiary structure change (fluorescent intensity at 350 nm) [10] | tertiary structure change (fluorescent intensity at 350 nm) [11] | cobalt binding (absorbance at 660 nm) after incubation with arsenical [12] | cobalt binding (absorbance at 660 nm) after incubation with arsenical [13] | stability of arsenite bound complex in kinetic studies (C2H2 complex) [min] | stability of arsenite bound complex in kinetic studies (C3H1 and C4 complexes) [min] | PARP activity inhibition (PARP [14])
C[As](O)O [MMA(III), monomethylarsonous acid] | caused zinc loss from all three configurations of zinc finger proteins | concentration-dependent decrease in cobalt binding to all three peptides | alters the tertiary structure of all 3 conformations of zinc fingers | caused zinc loss from all three configurations of zinc finger proteins | bound to the XPA zinc finger | caused zinc loss from all three configurations of zinc finger proteins | A270 values increased for all three types of zinc fingers | also bound to the PARP-1 zinc finger | A270 values increased for all three types of zinc fingers | about 30% | A270 values increased for all three types of zinc fingers | bound to APTX zinc finger peptide | decreased in a concentration-dependent manner | alters the tertiary structure of all 3 conformations of zinc fingers | concentration-dependent decrease in cobalt binding to all three peptides | concentration-dependent decrease in cobalt binding to all three peptides | – | – | –
sodium arsenite | selectively displaced zinc from PARP-1 and XPA proteins | – | selectively disrupted the tertiary structure of C3H1 and C4 zinc fingers | selectively displaced zinc from PARP-1 and XPA proteins | bound with PARP-1 and XPA zinc finger peptides | selectively displaced zinc from PARP-1 and XPA proteins | – | bound with PARP-1 and XPA zinc finger peptides | A270 values increased in a concentration-dependent manner | – | A270 values increased in a concentration-dependent manner | showed no binding to the APTX zinc finger | showed no effect | selectively disrupted the tertiary structure of C3H1 and C4 zinc fingers | decreased subsequent cobalt binding in a concentration-dependent manner | decreased subsequent cobalt binding in a concentration-dependent manner | 1.29 | 155 | up to 90%
